Source: patent US4962024A, “Signal enhancement in assay for an enzyme” (priority 1988, dated 1990)
Structures can show the parent of a compound that is named as a salt. Where two headings read alike, the source gives them in different places.

Target: acetyl cholinesterase (AChE) (Homo sapiens, UniProt P22303)
Experiment: Inhibition constants: inhibition of acetyl cholinesterase (AChE), acetyl thiocholine and Ellman's reagent
Assay type: biochemical
Description: Inhibition constants were measured in 50 mM Tris pH=8.0. Enzyme and inhibitor were incubated at ambient temperature for 20 minutes. Substrate for the enzyme was then added and the rate of hydrolysis was followed spectrophotometrically. The substrate for PLE and RLE was o-nitrophenylbutyrate and for AChE was acetyl thiocholine and Ellman's reagent.

acetyl cholinesterase (AChE), sequence (P22303 32-614): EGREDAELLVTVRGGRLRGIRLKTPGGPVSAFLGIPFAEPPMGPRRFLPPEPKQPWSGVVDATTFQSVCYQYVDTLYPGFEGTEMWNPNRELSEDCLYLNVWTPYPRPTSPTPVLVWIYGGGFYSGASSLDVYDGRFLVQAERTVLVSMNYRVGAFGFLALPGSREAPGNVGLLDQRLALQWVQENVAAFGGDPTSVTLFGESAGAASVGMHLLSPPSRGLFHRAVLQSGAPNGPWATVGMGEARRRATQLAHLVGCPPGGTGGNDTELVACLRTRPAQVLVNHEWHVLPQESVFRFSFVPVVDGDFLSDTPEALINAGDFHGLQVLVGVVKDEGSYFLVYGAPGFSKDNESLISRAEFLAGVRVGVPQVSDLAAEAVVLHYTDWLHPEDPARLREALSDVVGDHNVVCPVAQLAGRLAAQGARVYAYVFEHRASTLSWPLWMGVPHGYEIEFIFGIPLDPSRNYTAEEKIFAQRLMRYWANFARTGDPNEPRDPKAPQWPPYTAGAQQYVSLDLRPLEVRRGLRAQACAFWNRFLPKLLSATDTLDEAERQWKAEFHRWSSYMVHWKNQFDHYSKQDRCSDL

Q: C[N+](C)(CCO)CCCC(=O)C(F)(F)F [N,N-dimethyl-N-[2-(hydroxy)ethyl]-5,5,5-trifluoro-4-oxopentanaminium, hydroxide salt] was tested. Which Ki (AChE, 50 mM Tris pH=8.0, 20 minutes incubation at ambient temperature, acetyl thiocholine and Ellman's reagent, read-out: Ki (M)* (Esterase)) did it give?
A: 5e-09 M

Q: With C[N+](C)(CCCCO)CCCC(=O)C(F)(F)F [N,N-dimethyl-N-[4-(hydroxy)butyl] 5,5,5-trifluoro-4-oxopentanaminium, hydroxide salt] as the compound, how does the Ki read?
A: 6.5e-08 M
